According to publication PMC8074792, “An ω-3, but Not an ω-6 Polyunsaturated Fatty Acid Decreases Membrane Dipole Potential and Stimulates Endo-Lysosomal Escape of Penetratin” (Frontiers in Cell and Developmental Biology, 2021):

Legend:
[1] = test system: JY cells; test: Membrane dipole potential, di-8-ANEPPS excitation ratio, spectrofluorometry; format: cell-based, human; details: for Rexc, di-8-ANEPPS (excitation ratio 410-440 nm / 490-520 nm, positively correlates with DP): agent 20-200 μM, 10 min, 0.05% Pluronic F-127, measured at 37°C, mean of 5 experiments
Protocol: (§1) The human acute monocytic leukemia-derived cell line THP-1 and the human Epstein-Barr virus (EBV) transformed lymphoblastoid cell line JY were obtained from the American Type Culture Collection (Manassas, VA, United States) and cultivated according to their specifications. […] As controls, cells were treated with the corresponding amounts of native MβCD complexes not containing sterols. To study the effects of fatty acids, cells were incubated for 48 h in medium supplemented with saturated stearic acid (SA, Sigma Aldrich), ω-3 polyunsaturated α-linolenic acid (ALA, Sigma Aldrich) or ω-6 polyunsaturated γ-linolenic acid (GLA, Sigma Aldrich) at various concentrations ranging from 12.5 to 50 μM. […] After washing, cells were kept on ice and samples were subsequently warmed to 37°C right before measurements carried out with a Fluorolog-3 spectrofluorometer (Horiba Jobin Yvon, Edison, NJ, United States). During measurements, the cuvette holder was kept at 37°C using a circulating water bath. Excitation spectra were recorded between 380 and 550 nm with the detected emission wavelength set to 660 nm in order to minimize effects of possible changes in membrane fluidity ([Clarke and Kane, 1997]). The ratio of fluorescence intensities integrated between excitation wavelengths 410–440 nm and 490–520 nm was calculated for each sample, which positively correlates with the magnitude of DP ([Clarke and Kane, 1997]; [Kovacs et al., 2017]; [Batta et al., 2020]).

[2] = test system: THP-1 cells; test: as above; format: cell-based, human; details: for Rexc, di-8-ANEPPS (excitation ratio 410-440 nm / 490-520 nm, positively correlates with DP): agent 20-200 μM, 10 min, 0.05% Pluronic F-127, measured at 37°C, mean of 5 experiments
Protocol: as §1

[3] = parameters: method as in Batta et al., 2020; details: lowering DP with the agent; ref Batta et al., 2020; cited from earlier work
Text: One of the most widely studied cellular functions influenced by the magnitude of DP is the cellular binding and uptake of certain substances including drugs ([Asawakarn et al., 2001]), β-amyloid ([Hertel et al., 1997]) and other peptides ([Cladera and O’Shea, 1998]; [Zhan and Lazaridis, 2012]). […] Although cell-penetrating peptides are promising therapeutic tools for de ...

[4] = test system: JY cells; test: Membrane dipole potential, F66 emission ratio, flow cytometry; format: cell-based, human; details: n = 5; for Rem, F66 (emission ratio N*/T*, 470-490 nm / 564-606 nm, negatively correlates with DP): agent 20-200 μM, 10 min, 0.05% Pluronic F-127, at least 20,000 living cells per sample
Protocol: (§2) The human acute monocytic leukemia-derived cell line THP-1 and the human Epstein-Barr virus (EBV) transformed lymphoblastoid cell line JY were obtained from the American Type Culture Collection (Manassas, VA, United States) and cultivated according to their specifications. […] As controls, cells were treated with the corresponding amounts of native MβCD complexes not containing sterols. To study the effects of fatty acids, cells were incubated for 48 h in medium supplemented with saturated stearic acid (SA, Sigma Aldrich), ω-3 polyunsaturated α-linolenic acid (ALA, Sigma Aldrich) or ω-6 polyunsaturated γ-linolenic acid (GLA, Sigma Aldrich) at various concentrations ranging from 12.5 to 50 μM. […] After washing, the fluorescence intensities of cells were determined with a FACS Aria III flow cytometer (Becton Dickinson, Mountain View, CA, United States) at 37°C. […] Data analysis was carried out in FCS Express (De Novo Software, Los Angeles, CA, United States). The ratio of emitted intensities in the two wavelength ranges (N^∗/T^∗) was determined for each cell and the average value was calculated for each sample from the data of living cells gated on FSC-SSC dot plots. The value of N^∗/T^∗ ratio negatively correlates with the magnitude of DP ([Kovacs et al., 2017]).

[5] = test system: THP-1 cells; test: as above; format: cell-based, human; details: n = 5; for Rem, F66 (emission ratio N*/T*, 470-490 nm / 564-606 nm, negatively correlates with DP): agent 20-200 μM, 10 min, 0.05% Pluronic F-127, at least 20,000 living cells per sample
Protocol: as §2

[6] = test system: JY cells; test: Membrane fluidity, TMA-DPH fluorescence anisotropy; format: cell-based, human; details: 200 μM sterol 1 h or 50 μM fatty acid 48 h, 37°C, n = 6, vs control
Protocol: (§3) 4′-(trimethylammonio)-diphenylhexatriene (TMA-DPH) was purchased from Sigma-Aldrich, dissolved in tetrahydrofuran and used for determination of membrane fluidity as described previously ([Batta et al., 2018]). […] Fluorescence intensities were measured without washing using a Fluorolog-3 spectrofluorometer (Horiba Jobin Yvon, Edison, NJ, United States) with the temperature of the cuvette holder adjusted to 37°C by a circulating water bath. The fluorescence anisotropy (r) of TMA-DPH was determined in the L-format after excitation at 352 nm and measurement of fluorescence intensities at 430 nm according to the formula: […]

[7] = test system: THP-1 cells; test: Membrane fluidity, TMA-DPH fluorescence anisotropy; format: cell-based, human; details: 200 μM sterol 1 h or 50 μM fatty acid 48 h, 37°C, n = 6, vs control
Protocol: as §3

[8] = test system: JY cells; test: Membrane hydration, PY3174 generalized polarization, confocal microscopy; format: cell-based, human; details: 200 μM sterol 1 h or 50 μM fatty acid 48 h, efficacy order 6KC > cholesterol ≥ 7DHC, effects of 7DHC and SA not statistically significant
Protocol: (§4) For these measurements, cells were labeled with 10 μM PY3174 for 20 min at room temperature. […] During processing, segmentation of images into membrane and non-membrane pixels was carried out with the manually seeded watershed algorithm using a custom-written MATLAB program as described previously ([Kovacs et al., 2017]). The average value of general polarization correlating with the degree of membrane compactness ([[…] et al., 2013]) was calculated from the data of cell membrane pixels after background subtraction using […]

[9] = test system: THP-1 cells; test: as above; format: cell-based, human; details: 200 μM sterol 1 h or 50 μM fatty acid 48 h, efficacy order 6KC > cholesterol ≥ 7DHC, all statistically significant
Protocol: as §4

[10] = test system: JY cells; test: Penetratin uptake and endo-lysosomal escape, time-correlated flow cytometry; format: cell-based, human; details: 37°C
Text: (§5) Penetratin ([…]-amide, molecular weight 2245.75 g/mol) was synthesized manually on TentaGel R RAM (Rapp Polymere, Tübingen, Germany), a low crosslinked polystyrene PEG copolymer resin by the solid-phase method of Merrifield with standard Fmoc chemistry, as described in detail in our recent study ([Batta et al., 2020]). After coupling the last arginine, one half of the penetratin was reacted with AFDye532 N-hydroxysuccinimide ester (molecular weight 723.77 g/mol, Fluoroprobes, Scottsdale, AZ, United States), while the other half with 5(6)-carboxynaphthofluorescein N-succinimidyl ester (molecular weight 573.51 g/mol, Darmstadt, Germany). Completion of the coupling was assessed by Kaiser test, which was followed by deprotection and release from the resin. After filtration and precipitation with cold diethyl ether, the crude products were purified by preparative reversed-phase HPLC (JASCO, Victoria, BC, Canada) on a C18 column and lyophilized. The purity of the products (>95%) was assessed by reversed-phase HPLC (JASCO) equipped with an analytical C18 column. […] These values well correlated with the predicted masses of the labeled peptides (2983.59 and 2833.33, respectively).
(§6) Total cellular penetratin uptake and endo-lysosomal escape was determined as described previously ([Batta et al., 2020]). Briefly, control THP-1 or JY cells and those treated with 50 μM ALA, GLA or SA for 48 h at 37°C were incubated in the continuous presence of 5 μM AFDye532-penetratin, 5 μM NF-penetratin and 0.25 μg/ml DAPI at 37°C in the thermostated sample holder of a FACS Aria III flow cytometer. The fluorescence intensity of DAPI was measured using an excitation at 405 nm and an emission filter 450/20 nm. AFDye532 and NF were excited at 488 and 561 nm, respectively, and their fluorescence was determined using emission filters 530/30 and 670/14 nm, respectively. Measurements started immediately after addition of DAPI and penetratin and continued for 20 min at 37°C. Experimental data were analyzed first in FCS Express. Time-correlated fluorescence intensity values of DAPI-negative living cells were exported after spectral compensation and the moving averages of samples were calculated with a window size of 10 s. […] During analysis, fluorescence intensity values were first normalized to the average intensity in the first time window, which was followed by calculation of the fluorescence ratio from the normalized values.

[11] = test system: THP-1 cells; test: as above; format: cell-based, human; details: 37°C
Text: as §5, §6

[12] = sterol-MβCD complex, 60 min, room temperature, at the maximal applied concentration of 200 μM, n = 5, statistically significant
[13] = fatty acid 12.5-50 μM for 48 h, result at maximal 50 μM, n = 5
[14] = 50 μM fatty acid 48 h, 5 μM AFDye532- and 5 μM NF-penetratin, compared at 900 s, n = 5
[15] = 50 μM fatty acid 48 h, then 50 or 200 μM cholesterol 1 h
[16] = 5 μM AFDye532-penetratin + 5 μM NF-penetratin, flow cytometry, living cells
[17] = 5 μM AFDye532-penetratin + 5 μM NF-penetratin, continuous presence, flow cytometry, DAPI-negative living cells
[18] = 5 μM of each labeled penetratin, decline followed by a continuous gradual increase

Molecule | Rexc, di-8-ANEPPS (excitation ratio 410-440 nm / 490-520 nm, positively correlates with DP) ([1]; room temperature) | Rexc, di-8-ANEPPS (excitation ratio 410-440 nm / 490-520 nm, positively correlates with DP) ([2]; room temperature) | Rem, F66 (emission ratio N*/T*, 470-490 nm / 564-606 nm, negatively correlates with DP) [4] | Rem, F66 (emission ratio N*/T*, 470-490 nm / 564-606 nm, negatively correlates with DP) [5] | TMA-DPH fluorescence anisotropy (inversely correlates with membrane fluidity) [6] | TMA-DPH fluorescence anisotropy (inversely correlates with membrane fluidity) [7] | Rexc, di-8-ANEPPS [1, 12] | Rexc, di-8-ANEPPS [2, 12] | PY3174 generalized polarization in the cell membrane (inversely correlates with membrane hydration) [8] | PY3174 generalized polarization in the cell membrane (inversely correlates with membrane hydration) [9] | other results
O=C(CCc1ccc(O)cc1)c1c(O)cc(O)cc1O [phloretin, 3-(4-hydroxyphenyl)-1-(2,4,6-trihydroxyphenyl) propan-1-one] | dose-dependently decreased | dose-dependently decreased | increased Rem, F66 values implying lower magnitudes of DP, this change did not reach the level of significance in one of the cell lines | increased Rem, F66 values implying lower magnitudes of DP, this change did not reach the level of significance in one of the cell lines |  |  |  |  |  |  | cellular uptake and endo-lysosomal escape of penetratin [3]: increased
CC(C)CCC[C@@H](C)[C@H]1CC[C@H]2C3=CC=C4C[C@@H](O)CC[C@]4(C)[C@H]3CC[C@]12C [7DHC, 7-dehydrocholesterol] |  |  |  |  | significantly elevated | significantly elevated | slightly raised | slightly raised | shifted toward the positive direction | shifted toward the positive direction | 
CCCCCCCCCCCCCCCCCC(=O)O [SA, stearic acid] |  |  |  |  | did not reach statistical significance | did not reach statistical significance |  |  | increased the generalized polarization, albeit to a miniscule extent | increased the generalized polarization, albeit to a miniscule extent | Rexc, di-8-ANEPPS [1, 13]: slightly higher; Rexc, di-8-ANEPPS [2, 13]: slightly higher; ratio of NF and AFDye532 intensities (endo-lysosomal escape of penetratin) vs controls [10, 14]: no significant changes; ratio of NF and AFDye532 intensities (endo-lysosomal escape of penetratin) vs controls [11, 14]: no significant changes; effect of fatty acid pretreatment on cholesterol-induced DP elevation (Rem, F66) [4, 15]: a tendency to augment the cholesterol-induced DP changes; effect of fatty acid pretreatment on cholesterol-induced DP elevation (Rem, F66) [5, 15]: a tendency to augment the cholesterol-induced DP changes; Rem, F66 ([5]; fatty acid 12.5-50 μM for 48 h): opposite changes were observed in response to SA or GLA with the former not reaching the level of significance
RQIKIWFQNRRMKWKK-amide [penetratin] |  |  |  |  |  |  |  |  |  |  | duration of fast increase of NF signal (endo-lysosomal escape of penetratin), followed by slower continuous rise [10, 16]: 180 to 240 s; time of saturation of AFDye532 signal (total cellular penetratin concentration) [10, 17]: 120 to 180 s; time course of ratio of NF and AFDye532 (fraction of penetratin in the cytosol) [10, 18]: initially declined; duration of fast increase of NF signal (endo-lysosomal escape of penetratin), followed by slower continuous rise [11, 16]: 180 to 240 s; time of saturation of AFDye532 signal (total cellular penetratin concentration) [11, 17]: 120 to 180 s; time course of ratio of NF and AFDye532 (fraction of penetratin in the cytosol) [11, 18]: initially declined
CC(C)CCC[C@@H](C)[C@H]1CC[C@H]2[C@@H]3CC(=O)[C@H]4C[C@@H](O)CC[C@]4(C)[C@H]3CC[C@]12C [6KC, 3β-hydroxy-5α-cholestan-6-one] | dose-dependently increased | dose-dependently increased | dose-dependent decreases | dose-dependent decreases | did not reach statistical significance | did not reach statistical significance | robustly elevated | robustly elevated | shifted toward the positive direction | shifted toward the positive direction | 
CC(C)CCC[C@@H](C)[C@H]1CC[C@H]2[C@@H]3CC=C4C[C@@H](O)CC[C@]4(C)[C@H]3CC[C@]12C [cholesterol] |  |  |  |  | significantly elevated | significantly elevated | moderately increased | moderately increased | shifted toward the positive direction | shifted toward the positive direction | 
